# Patent US8137718B2, “Probiotic infant products” (Mead Johnson Nutrition Company, priority 2008, dated 2012)
# Tested on: B. longum AH1205
# Experiment: Minimum inhibitory concentration (MIC) of antibiotics for the B. longum strain
# Type: cell-based, Bifidobacterium longum
# Conditions: against the B. longum strain AH1205
# Description: Antibiotic sensitivity profiles of the B. longum strain were determined using the “disc susceptibility” assay. Cultures were grown in the appropriate broth medium for 24-48 hours, spread-plated (100 μl) onto agar media, and discs containing known concentrations of the antibiotics were placed onto the agar. Strains were examined for antibiotic sensitivity after 1-2 days incubation at 37° C. under anaerobic conditions. Strains were considered sensitive if zones of inhibition of 1 mm or greater were seen. The minimum inhibitory concentration (MIC) for each antibiotic was independently assessed.
row,Structure (SMILES),minimum inhibitory concentration (MIC)
1,CCC[C@@H]1C[C@@H](C(=O)N[C@@H]([C@H]2O[C@H](SC)[C@H](O)[C@@H](O)[C@H]2O)[C@H](C)Cl)N(C)C1 [clindamycin],0.032
2,Cc1ncc([N+](=O)[O-])n1CCO [metronidazole],> 256
3,CN[C@H](CC(C)C)C(=O)N[C@H]1C(=O)N[C@@H](CC(N)=O)C(=O)N[C@H]2C(=O)N[C@H]3C(=O)N[C@H](C(=O)N[C@H](C(=O)O)c4cc(O)cc(O)c4-c4cc3ccc4O)[C@H](O)c3ccc(c(Cl)c3)Oc3cc2cc(c3O[C@@H]2O[C@H](CO)[C@@H](O)[C@H](O)[C@H]2O[C@H]2C[C@](C)(N)[C@H](O)[C@H](C)O2)Oc2ccc(cc2Cl)[C@H]1O [vancomycin],0.75
